Assay results: PMC12102759 (Protein Science : A Publication of the Protein Society, 2025)
Read-outs that look alike come from different tables or passages of the source. Residues, ends and D or L forms follow the SMILES beside them. *: point of attachment. FITC = O=C1OC2(c3ccc(O)cc3Oc3cc(O)ccc32)c2ccc(NC(=S)*)cc21

Columns and labels:
NSP3 UBl1 [1] = target: T1, NSP3 UBl1 (Severe acute respiratory syndrome coronavirus 2, UniProt P0DTC1); test: biochemical; assay type: binding, SARS‐CoV‐2
USP7 MATH = assay type: binding, human; conditions: DMS-CoV library, bait USP7 MATH, prey N, parental peptide SKQLQQSMSSADSTQA, label suffix = wt residue, displayed residue (same letter = wild type), x = no value
NSP3 SUD-M [2] = target: T2, NSP3 SUD-M (Severe acute respiratory syndrome coronavirus 2, UniProt P0DTC1); test: biochemical; assay type: binding, SARS‐CoV‐2
TLN1 PTB = TLN1 PTB (Homo sapiens, UniProt Q9Y490); test: biochemical; assay type: binding
NSP9 = NSP9 (Severe acute respiratory syndrome coronavirus 2, UniProt P0DTC1); test: biochemical; assay type: binding, SARS‐CoV‐2
NSP3 ADRP [3] = target: T3, NSP3 ADRP (Severe acute respiratory syndrome coronavirus 2, UniProt P0DTC1); test: biochemical; assay type: binding, SARS‐CoV‐2
NSP3 UBl1 [4] = target: T1, NSP3 UBl1; test: biochemical; assay type: binding, SARS‐CoV‐2; remark: listed apart in the source
NSP3 SUD-M [5] = target: T2, NSP3 SUD-M; test: biochemical; assay type: binding, SARS‐CoV‐2; remark: listed apart in the source
NSP3 ADRP [6] = target: T3, NSP3 ADRP; test: biochemical; assay type: binding, SARS‐CoV‐2; remark: listed apart in the source

TLN1 PTB, sequence (Q9Y490 309-401): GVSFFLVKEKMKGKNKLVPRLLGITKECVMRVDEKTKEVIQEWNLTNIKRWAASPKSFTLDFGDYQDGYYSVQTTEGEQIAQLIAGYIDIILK

Compound: Ac-PSDEQALLQQLYLALR-NH2 [NCOA2 G1077Q D1081Q]
- IC50 (NSP3 UBl1 [1]): 66.2 µM
- Kd (NSP3 UBl1 [1]): 5.1 µM

Compound: SKQLQQSMSSADSTQA K2V (SVQLQQSMSSADSTQA)
- DMS PSSM value (matrix of displayed amino acid x peptide position) (USP7 MATH): 1

Compound: Ac-QFTEEDLMFVLYGVTPY-NH2 [PRDM14 H203M]
- IC50 (NSP3 SUD-M [2]): 124 µM
- Kd (NSP3 SUD-M [2]): 13 µM

Compound: Ac-PSDEQALLDQLYLALR-NH2 [NCOA2 G1077Q]
- IC50 (NSP3 UBl1 [1]): 98 µM
- Kd (NSP3 UBl1 [1]): 19 µM

Compound: Ac-LADLIWTDSKLYIPLE-NH2 [TPTE2_92‐107 F97W]
- Kd (TLN1 PTB): 0.1 µM
- fold higher affinity than wild‐type TPTE2_92‐107 (TLN1 PTB): 44 fold

Compound: SKQLQQSMSSADSTQA S7S
- DMS PSSM value (matrix of displayed amino acid x peptide position) (USP7 MATH): 1

Compound: Ac-PSDEGALLQQLYLALR-NH2 [NCOA2 D1081Q]
- IC50 (NSP3 UBl1 [1]): 108 µM
- Kd (NSP3 UBl1 [1]): 24 µM

Compound: CC[C@H](C)[C@H](NC(=O)CNC(=O)[C@H](CCC(=O)O)NC(=O)[C@H](C)NC(=S)Nc1ccc2c(c1)C(=O)OC21c2ccc(O)cc2Oc2cc(O)ccc21)C(=O)N[C@@H](CC(=O)O)C(=O)N[C@H](C(=O)NCC(=O)N[C@@H](CCC(=O)O)C(=O)N[C@@H](CCSC)C(=O)N1CCC[C@H]1C(=O)N[C@@H](CO)C(=O)N[C@@H](Cc1ccc(O)cc1)C(=O)N[C@@H](CC(=O)O)C(=O)N[C@@H](CC(C)C)C(=O)N[C@H](C(=O)N[C@@H](CC(C)C)C(=O)O)C(C)C)[C@@H](C)CC
- Kd (NSP9): 15.5 µM

Compound: Ac-STYLHPLSELLTIPLD-NH2 [MBOAT1 G28T]
- IC50 (NSP3 ADRP [3]): 311 µM
- Kd (NSP3 ADRP [3]): 104 µM

Compound: Ac-LADLIFTDSALYIPLE-NH2 [TPTE2_K101A]
- Kd (TLN1 PTB): 15 µM

Compound: Ac-LADLIFTDSKLYIPLE-NH2 [TPTE2 wt]
- IC50 (TLN1 PTB): 15 µM
- Kd (TLN1 PTB): 4.5 µM

Compound: CC(C)C[C@H](NC(=O)[C@H](C)NC(=O)[C@H](CC(C)C)NC(=O)[C@H](Cc1ccc(O)cc1)NC(=O)[C@H](CC(C)C)NC(=O)[C@H](CCC(N)=O)NC(=O)[C@H](CC(=O)O)NC(=O)[C@H](CC(C)C)NC(=O)[C@H](CC(C)C)NC(=O)[C@H](C)NC(=O)CNC(=O)[C@H](CCC(=O)O)NC(=O)[C@H](CC(=O)O)NC(=O)[C@H](CO)NC(=S)Nc1ccc2c(c1)C(=O)OC21c2ccc(O)cc2Oc2cc(O)ccc21)C(=O)N[C@@H](CCCNC(=N)N)C(=O)N[C@@H](CC(N)=O)C(=O)O ({FITC}-SDEGALLDQLYLALRN-OH)
- Kd (NSP3 UBl1 [4]): 67 µM

Compound: Ac-QFTEEDLHFVLEGVTPY-NH2 [PRDM14 Y207E]
- IC50 (NSP3 SUD-M [2]): 243 µM
- Kd (NSP3 SUD-M [2]): 40 µM

Compound: SKQLQQSMSSADSTQA Q15Q
- DMS PSSM value (matrix of displayed amino acid x peptide position) (USP7 MATH): 1

Compound: Ac-LADLIFTDSKLYLPLE-NH2 [TPTE2_I104L]
- Kd (TLN1 PTB): 4.5 µM

Compound: Ac-STYLHPLSELLGMPLD-NH2 [MBOAT1 I29M]
- IC50 (NSP3 ADRP [3]): 268 µM
- Kd (NSP3 ADRP [3]): 86.5 µM

Compound: Ac-QFTEEDLHFVLYGVTPY-NH2 [PRDM14 wt]
- IC50 (NSP3 SUD-M [2]): 400 µM
- Kd (NSP3 SUD-M [2]): 74 µM

Compound: Ac-STYLHPLSELFGIPLD-NH2 [MBOAT1 L27F]
- IC50 (NSP3 ADRP [3]): 255 µM
- Kd (NSP3 ADRP [3]): 82 µM

Compound: Ac-QFTEEALHFVLYGVTPY-NH2 [PRDM14 D201A]
- IC50 (NSP3 SUD-M [2]): 1050 µM
- Kd (NSP3 SUD-M [2]): 226 µM

Compound: Ac-STALHPLSELLGIPLDY-NH2 [MBOAT1 Y19A]
- IC50 (NSP3 ADRP [3]): 452 µM
- Kd (NSP3 ADRP [3]): 161 µM

Compound: CC(C)C[C@H](NC(=O)[C@H](CC(=O)O)NC(=O)[C@H](CCC(=O)O)NC(=O)[C@H](CCC(=O)O)NC(=O)[C@@H](NC(=O)[C@H](Cc1ccccc1)NC(=S)Nc1ccc2c(c1)C(=O)OC21c2ccc(O)cc2Oc2cc(O)ccc21)[C@@H](C)O)C(=O)N[C@@H](Cc1c[nH]cn1)C(=O)N[C@@H](Cc1ccccc1)C(=O)N[C@H](C(=O)N[C@@H](CC(C)C)C(=O)N[C@@H](Cc1ccc(O)cc1)C(=O)NCC(=O)N[C@H](C(=O)N[C@H](C(=O)N1CCC[C@H]1C(=O)N[C@@H](CO)C(=O)O)[C@@H](C)O)C(C)C)C(C)C ({FITC}-FTEEDLHFVLYGVTPS-OH)
- Kd (NSP3 SUD-M [5]): 19 µM

Compound: SKQLQQSMSSADSTQA S10S
- DMS PSSM value (matrix of displayed amino acid x peptide position) (USP7 MATH): 1

Compound: Ac-STYLHPLSELLGIPLD-NH2 [MBOAT1 wt]
- IC50 (NSP3 ADRP [3]): 175 µM

Compound: SKQLQQSMSSADSTQA Q6Q
- DMS PSSM value (matrix of displayed amino acid x peptide position) (USP7 MATH): 1

Compound: SKQLQQSMSSADSTQA S1S
- DMS PSSM value (matrix of displayed amino acid x peptide position) (USP7 MATH): 1

Compound: Ac-QFTEENLHFVLYGVTPY-NH2 [PRDM14 D201N]
- IC50 (NSP3 SUD-M [2]): 1430 µM
- Kd (NSP3 SUD-M [2]): 313 µM

Compound: SKQLQQSMSSADSTQA M8M
- DMS PSSM value (matrix of displayed amino acid x peptide position) (USP7 MATH): 1

Compound: SKQLQQSMSSADSTQA D12D
- DMS PSSM value (matrix of displayed amino acid x peptide position) (USP7 MATH): 1

Compound: Ac-QFTEEELHFVLYGVTPY-NH2 [PRDM14 D201E]
- IC50 (NSP3 SUD-M [2]): 90 µM
- Kd (NSP3 SUD-M [2]): 5.4 µM
- fold increase in affinity compared to wild‐type PRDM14 peptide (NSP3 SUD-M [2]): 14 fold

Compound: SKQLQQSMSSADSTQA Q5Q
- DMS PSSM value (matrix of displayed amino acid x peptide position) (USP7 MATH): 1

Compound: SKQLQQSMSSADSTQA Q3Q
- DMS PSSM value (matrix of displayed amino acid x peptide position) (USP7 MATH): 1

Compound: Ac-PSDEGALLDQLYLALR-NH2 [NCOA2 wt]
- IC50 (NSP3 UBl1 [1]): 139 µM
- Kd (NSP3 UBl1 [1]): 39 µM

Compound: Ac-STYLHPLSELLGIPFD-NH2 [MBOAT1 L31F]
- IC50 (NSP3 ADRP [3]): 285 µM
- Kd (NSP3 ADRP [3]): 93 µM

Compound: SKQLQQSMSSADSTQA S13S
- DMS PSSM value (matrix of displayed amino acid x peptide position) (USP7 MATH): 1

Compound: SKQLQQSMSSADSTQA T14V (SKQLQQSMSSADSVQA)
- DMS PSSM value (matrix of displayed amino acid x peptide position) (USP7 MATH): 1

Compound: Ac-STYIHPLSELLGIPLD-NH2 [MBOAT1 L20I]
- IC50 (NSP3 ADRP [3]): 429 µM
- Kd (NSP3 ADRP [3]): 152 µM

Compound: SKQLQQSMSSADSTQA A11A
- DMS PSSM value (matrix of displayed amino acid x peptide position) (USP7 MATH): 1

Compound: CC[C@H](C)[C@H](NC(=O)CNC(=O)[C@H](CC(C)C)NC(=O)[C@H](CC(C)C)NC(=O)[C@H](CCC(=O)O)NC(=O)[C@H](CO)NC(=O)[C@H](CC(C)C)NC(=O)[C@@H]1CCCN1C(=O)[C@H](Cc1c[nH]cn1)NC(=O)[C@H](CC(C)C)NC(=O)[C@H](Cc1ccc(O)cc1)NC(=O)[C@@H](NC(=O)[C@H](CO)NC(=O)CNC(=S)Nc1ccc2c(c1)C(=O)OC21c2ccc(O)cc2Oc2cc(O)ccc21)[C@@H](C)O)C(=O)N1CCC[C@H]1C(=O)N[C@@H](CC(C)C)C(=O)O ({FITC}-GSTYLHPLSELLGIPL-OH)
- Kd (NSP3 ADRP [6]): 50.8 µM

Compound: SKQLQQSMSSADSTQA S9S
- DMS PSSM value (matrix of displayed amino acid x peptide position) (USP7 MATH): 1
